Source: BindingDB's records for doi:10.1021/jm00381a005 (1985)

Assay: Inhibitory activity against thromboxane B2 formation (TXA2 synthase) by incubating prostaglandin H2 (PGH-2) with horse platelet microsomes

IC50 [nM] | Compound
62 | O=C(O)CCCC/C=C(/c1cccnc1)c1ccsc1 [(Z)-7-Pyridin-3-yl-7-thiophen-3-yl-hept-6-enoic acid]
21 | CC(C)(CCC/C=C(\c1ccccc1)c1cccnc1)C(=O)O [2,2-Dimethyl-7-phenyl-7-pyridin-3-yl-hept-6-enoic acid]
> 100000 | O=C(O)CCCC/C=C(/c1ccccc1)c1ccccn1 [7-Phenyl-7-pyridin-2-yl-hept-6-enoic acid]
600 | CCOC(=O)CCCC/C=C(\c1ccccc1)c1cccnc1 [7-Phenyl-7-pyridin-3-yl-hept-6-enoic acid ethyl ester]
30 | CC(C)(CCC/C=C(/c1ccccc1)c1cccnc1)C(=O)O [2,2-Dimethyl-7-phenyl-7-pyridin-3-yl-hept-6-enoic acid]
42 | CC(C)(O)C(CCC/C=C(\c1ccccc1)c1cccnc1)C(=O)O (configuration not stated) [2-(1-Hydroxy-1-methyl-ethyl)-7-phenyl-7-pyridin-3-yl-hept-6-enoic acid]
54 | O=C(O)CCCC/C=C(/c1cccnc1)c1cccs1 [(Z)-7-Pyridin-3-yl-7-thiophen-2-yl-hept-6-enoic acid]
55 | O=C(O)CCCCCCCCC/C=C(\c1ccccc1)c1cccnc1 [12-Phenyl-12-pyridin-3-yl-dodec-11-enoic acid]
32 | O=C(O)C(CCC/C=C(\c1cccnc1)c1cccs1)c1ccccc1 (configuration not stated) [2-Phenyl-7-pyridin-3-yl-7-thiophen-2-yl-hept-6-enoic acid]
2700 | O=C(O)CCCCCC(c1ccccc1)c1cccnc1 (configuration not stated) [7-Phenyl-7-pyridin-3-yl-heptanoic acid]
50 | O=C(O)C(CCC/C=C(/c1cccnc1)c1cccs1)c1ccccc1 (configuration not stated) [2-Phenyl-7-pyridin-3-yl-7-thiophen-2-yl-hept-6-enoic acid]
400 | NC(=O)CCCC/C=C(\c1ccccc1)c1cccnc1 [7-Phenyl-7-pyridin-3-yl-hept-6-enoic acid amide]
30 | CSC(CCC/C=C(\c1ccccc1)c1cccnc1)C(=O)O (configuration not stated) [2-Methylsulfanyl-7-phenyl-7-pyridin-3-yl-hept-6-enoic acid]
30 | O=C(O)CCC/C=C(\c1ccccc1)c1cccnc1 [6-Phenyl-6-pyridin-3-yl-hex-5-enoic acid]
110 | CC(C)CSC(CCC/C=C(\c1ccccc1)c1cccnc1)C(=O)O (configuration not stated) [2-Isobutylsulfanyl-7-phenyl-7-pyridin-3-yl-hept-6-enoic acid]
28 | C=C(C)C(CCC/C=C(\c1ccccc1)c1cccnc1)C(=O)O (configuration not stated) [2-Isopropenyl-7-phenyl-7-pyridin-3-yl-hept-6-enoic acid]
65 | O=C(O)C(CCC/C=C(\c1ccccc1)c1cccnc1)C1(O)CCCC1 (configuration not stated) [2-(1-Hydroxy-cyclopentyl)-7-phenyl-7-pyridin-3-yl-hept-6-enoic acid]
20 | O=C(O)CCCC/C=C(\c1cccnc1)c1cccs1 [7-Pyridin-3-yl-7-thiophen-2-yl-hept-6-enoic acid]
55 | O=C(O)CCCC/C=C(\c1cccnc1)c1cccc(F)c1 [7-(3-Fluoro-phenyl)-7-pyridin-3-yl-hept-6-enoic acid]
180 | O=C(O)CCCC/C=C(\c1cccnc1)c1cccc(Br)c1 [7-(3-Bromo-phenyl)-7-pyridin-3-yl-hept-6-enoic acid]
33 | O=C(O)C(CCC/C=C(\c1ccccc1)c1cccnc1)Sc1ccccc1 (configuration not stated) [7-Phenyl-2-phenylsulfanyl-7-pyridin-3-yl-hept-6-enoic acid]

IC50 [nM] | Compound
65 | O=C(O)CCCC/C=C(/CCCc1ccccc1)c1cccnc1 [10-Phenyl-7-pyridin-3-yl-dec-6-enoic acid]
210 | C/C(=C\CCCCC(=O)O)c1cccnc1 [(Z)-7-Pyridin-3-yl-oct-6-enoic acid]
41 | COCC(CCC/C=C(\c1ccccc1)c1cccnc1)C(=O)O (configuration not stated) [2-Methoxymethyl-7-phenyl-7-pyridin-3-yl-hept-6-enoic acid]
85 | Cc1ccc(/C(=C/CCCCC(=O)O)c2cccnc2)cc1 [7-Pyridin-3-yl-7-p-tolyl-hept-6-enoic acid]
71 | C/C(=C/CCCCC(=O)O)c1cccnc1 [7-Pyridin-3-yl-oct-6-enoic acid]
83 | O=C(O)CCCC/C=C(/c1ccc(F)cc1)c1cccnc1 [7-(4-Fluoro-phenyl)-7-pyridin-3-yl-hept-6-enoic acid]
29 | Cc1ccsc1/C(=C/CCCCC(=O)O)c1cccnc1 [7-(3-Methyl-thiophen-2-yl)-7-pyridin-3-yl-hept-6-enoic acid]
73 | O=C(O)CCCC/C=C(\c1cccnc1)c1cccc([N+](=O)[O-])c1 [7-(3-Nitro-phenyl)-7-pyridin-3-yl-hept-6-enoic acid]
38 | CC(C)(CCCC/C=C(/c1ccccc1)c1cccnc1)C(=O)O [2,2-Dimethyl-8-phenyl-8-pyridin-3-yl-oct-7-enoic acid]
520 | O=C(O)CCCCCCCCC/C=C(/c1ccccc1)c1cccnc1 [12-Phenyl-12-pyridin-3-yl-dodec-11-enoic acid]
130 | O=C(O)CCCC/C=C(\c1cccnc1)c1ccccc1Br [7-(2-Bromo-phenyl)-7-pyridin-3-yl-hept-6-enoic acid]
82 | O=C(O)CCCC/C=C(/c1ccc(Br)cc1)c1cccnc1 [7-(4-Bromo-phenyl)-7-pyridin-3-yl-hept-6-enoic acid]
31 | O=C(O)CCCC/C=C(\c1cccnc1)c1ccsc1 [7-Pyridin-3-yl-7-thiophen-3-yl-hept-6-enoic acid]
80 | COc1ccc(/C(=C/CCCCC(=O)O)c2cccnc2)cc1 [7-(4-Methoxy-phenyl)-7-pyridin-3-yl-hept-6-enoic acid]
> 10000 | O=C(O)CCCC/C=C(\c1ccccc1)c1ccc[n+]([O-])c1 [7-(1-Oxy-pyridin-3-yl)-7-phenyl-hept-6-enoic acid]
50 | C=CCC(CCC/C=C(\c1ccccc1)c1cccnc1)C(=O)O (configuration not stated) [2-Allyl-7-phenyl-7-pyridin-3-yl-hept-6-enoic acid]
60 | O=C(O)C(CCC/C=C(\c1ccccc1)c1cccnc1)C1=CCCC1 (configuration not stated) [2-Cyclopent-1-enyl-7-phenyl-7-pyridin-3-yl-hept-6-enoic acid]
280 | O=C(O)CCC/C=C(/c1ccccc1)c1cccnc1 [6-Phenyl-6-pyridin-3-yl-hex-5-enoic acid]
100 | COC(=O)CCCC/C=C(\c1ccccc1)c1cccnc1 [7-Phenyl-7-pyridin-3-yl-hept-6-enoic acid methyl ester]
45 | CC(C)(CCCC/C=C(\c1ccccc1)c1cccnc1)C(=O)O [2,2-Dimethyl-8-phenyl-8-pyridin-3-yl-oct-7-enoic acid]
250 | O=C(O)CCCC/C=C\c1cccnc1 [7-Pyridin-3-yl-hept-6-enoic acid]
